# Results reported in article PMC10961359, “Targeting hexokinase 2 for oral cancer therapy: structure-based design and validation of lead compounds” (Frontiers in Pharmacology, 2024).
# Key:
# Format in all cases: cell-based
# [1] = system: FaDu cells; test: Cell cycle analysis (propidium iodide, flow cytometry), FaDu; details: 10 and 30 μM, 72 h
# Protocol: FaDu and Cal27 cells were treated with the test compounds (0.5 million cells per treatment) for 72 h, and harvested for cell cycle analysis (Cat# BD340242) and apoptosis analysis (Cat# BD556547) by flow cytometry according to manufacturer’s instructions.
# To determine the effect of HK2 inhibition in the progression of the cell cycle, flow cytometric analysis of compound-treated FaDu and Cal27 cells was carried out 72 h post-treatment. Cell cycle analysis is carried out to quantify the DNA content and estimate the percentages of the cell population in different cell cycle phases via propidium iodide staining. […] To determine the apoptosis-inducing activity of HK2 inhibitors, 10 and 30 μM of compounds H2 and H10 treated FaDu and Cal27 cells were stained with annexin V conjugated with FITC, followed by propidium iodide staining.
# [2] = system: Cal27 cells; test: 2-NBDG glucose uptake assay (flow cytometry), Cal27; details: Cal27, 10 μM and 30 μM, 72 h, vs DMSO control
# Protocol: FaDu and Cal27 cells were treated with test compounds (0.2 million cells per treatment) and were incubated for 1 h with 100 μM of 2-NBDG (Invitrogen, N13195), in glucose free medium, washed with ice-cold PBS, and re-suspended in 500 μL of PBS and maintained on ice to perform flow cytometric analyses within 30 min. The mean fluorescent intensity (MFI) readout reflects the amount of fluorescent glucose analog taken up by the cells, providing insight into their glucose uptake capacity. The percent (%) cell population positive for glucose uptake (shown with a right shift of the histogram peaks) were also plotted for both the cell lines. For MMP analysis, cells were incubated with 200 nM of TMRE (Invitrogen, T669) for 30 min. For each measurement, data was collected for 10,000 events using a BD FACS Aria III (Becton Dickinson, San Jose, CA) instrument.
# 2-[N-(7-Nitrobenz-2-oxa-1,3-diaxol-4-yl) amino]-2-deoxyglucose (2-NBDG) uptake into cells happens via glucose transporters and post uptake 2-NBDG gets phosphorylated by hexokinases. Since cancer cells represent higher glycolytic activity, the inhibition of HK2 activity in cancer cells is actively reflected in the inhibition of 2-NBDG uptake ([Hung et al., 2022]; [Li et al., 2022]). […] In this assay, the MFI of intracellular 2-NBDG serves as a quantitative measure of cellular glucose uptake. […] This finding is further supported by the increased % population of 2-NBDG positive cells in Cal27 cells compared to FaDu cells (Figure 3).
# [3] = system: LC3B in Cal27 cells; test: Immunofluorescence LC3B / MitoTracker Red colocalization (mitophagy); details: Cal27, 4 h
# Protocol: Cal27 cells were treated with respective compounds for 4h, and washed with PBS and fixed with 100% methanol. The non-specific antibody binding was blocked by incubating with 5% goat serum in 0.3% Triton X-100 for 1 h. The diluted primary antibody (LC3B mAb, CST Cat# 3868) and MitoTracker Red (CST, Cat# 9082) were applied and samples were incubated overnight at 4°C followed by addition of fluorescently labelled secondary antibody for 2 h at room temperature and visualized using Leica DMi8 laser scanning confocal microscope using the Leica LAS X software. To analyze the extent of mitophagy in the captured images, the colocalization area of green (LC3B) and red (Mito-Red) portions were quantified using the LAS X software. The LC3B MFI was also quantified and represented in gray values.
# Mitochondria utilize the oxidizable substrates to produce a membrane potential as the proton gradient ([Sivandzade et al., 2019]). Loss in mitochondrial membrane potential (MMP) is a direct measurement of mitochondrial stress and may cause the release of apoptotic factors leading to cell death ([Zhang et al., 2017]). […] To determine the change in MMP post-treatment with HK2 inhibitors, the cells were treated with 200 nM of TMRE (tetramethyl rhodamine ethyl ester, a cell-permeant cationic dye readily sequestered by active mitochondria) and flow cytometric analyses of TMRE uptake was carried out. […]
# [4] = system: Cal27 oral cancer cells; test: MTT antiproliferative assay, Cal27; details: Homo sapiens, CAL-27; MTT, 72 h treatment; mean ± SEM; read-out: GI50 for Cal27
# Protocol: FaDu cell line was cultured in RPMI-1640 medium containing L-glutamine (300 mg/L) and sodium bicarbonate (2 g/L), while Cal27, HEK293 and HFF-1 cell lines were cultured in DMEM medium containing glucose (4.5 g/L), L-glutamine (584 mg/L) and sodium bicarbonate (3.7 g/L). For gene expression and qPCR studies, RNA isolation was performed using Trizol (Thermo). The reagents and the primer sequences employed for the qPCR assays have been described previously ([Chakraborty et al., 2022]).
# The hits derived from the docking study were sourced from either commercial suppliers or pre-existing compounds within our laboratory or were synthesized anew. The FaDu and Cal27 oral cancer cells were treated with the compounds for 72 h at concentrations of 3, 10, 30, and 100 μM. A post-treatment MTT assay was done to evaluate their antiproliferative activity. Table S2 represents the anti-proliferative and enzyme inhibitory activity of the compounds obtained as hits from the structure-based drug design strategy. […] Consequently, 50 μM of all the hit compounds were evaluated for their HK2 enzyme inhibitory activity. 50 μM of compounds were incubated with HK2 protein and the rate of reaction was assessed in kinetic mode (rate of conversion of NAD to NADH). The choice of 50 μM concentration was based primarily on MTT assays and GI50 calculation. The average GI50 values of the hit compounds against less sensitive FaDu cell line was approximately 50 μM. Considering this information, we reasoned that utilizing a concentration equivalent to the average GI50 would allow us to assess the maximum inhibitory effect of the compounds on HK2 enzyme activity. […] The same compounds have been previously reported by our team to have EGFR phosphorylation inhibitory potential and were coded as H2 (compound 14) and H10 (compound 11) ([Chakraborty et al., 2022]). […] Figures 1C,D show the lead compounds H2 and H10 at the active site of HK2 enzyme interacting via H-bonds with the amino acid residues.
# [5] = system: EGFR tyrosine kinase phosphorylation in Cal27 cells; test: Western blot pEGFR in Cal27 lysates; details: Cal27, 30 µM, 4 h post-treatment
structure (smiles),measurement,setting,value
"COc1ccc(CNC(=O)c2nc3ccccc3s2)cc1O [Compound 14, N-(3-hydroxy-4methoxybenzyl)benzo[d]thiazole-2-carboxamide]",subG1 phase population,[1],increase in subG1 phase population
same,2-NBDG MFI,[2],significant reduction
same,LC3B expression and co-localization with MitoTracker Red (mitophagy),[3],increase in LC3B expression
same,GI50,[4],21.7 µM
same,EGFR tyrosine kinase phosphorylation,[5],does not significantly impact
